Laboratory results reported in patent US9833497B2, “Human originated EGF domain proteins and use of the same” (CHENGDU SOURCEBIO LIMITED-LIABILITY COMPANY, priority 2013, dated 2017).

Assays:
Type in all cases: cell-based
[1] = tested on: E. coli DH5α; experiment: Antibacterial activity: MIC and growth curve against E. coli DH5α in 96-well plate; conditions: minimal inhibitory concentration against E. coli DH5α; 96-well plate, 5×10^5 CFU/mL, 37° C., judged after 8 h
Method in brief: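 MIC taken as lowest protein level with no bacterial growth, tracked by A600 every 30 min during 37 °C, 175 rpm culture. Two-fold protein series 50-12.5 μg/mL final, triplicate wells, against 5×10^5 CFU/mL of LB-washed mid-log cells.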

[2] = tested on: E. coli BL21; experiment: MIC against Gram-negative bacteria: E. coli BL21
Method in brief: (§1)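 MIC = lowest concentration of recombinant protein showing no growth. Test proteins: purified human-derived EGF domain proteins, two-fold dilution series, three wells per concentration; inoculum 5×10^5 CFU/mL in LB; incubation 37° C with shaking at 175 rpm.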

[3] = tested on: Pseudomonas aeruginosa; experiment: MIC against Gram-negative bacteria: Pseudomonas aeruginosa; conditions: for MIC (μg/mL) P. aeruginosa / MIC: P. aeruginosa
Method in brief: as §1

[4] = tested on: Klebsiella pneumonia; experiment: MIC against Gram-negative bacteria: Klebsiella pneumonia; conditions: for MIC (μg/mL) K. pneumonia / MIC: K. pneumonia
Method in brief: as §1

[5] = tested on: Enterobacter cloacae; experiment: MIC against Gram-negative bacteria: Enterobacter cloacae; conditions: for MIC (μg/mL) E. cloacae / MIC: E. cloacae
Method in brief: as §1

[6] = tested on: Aeromonas hydrophila; experiment: MIC against Gram-negative bacteria: Aeromonas hydrophila; conditions: for MIC (μg/mL) A. hydrophila / MIC: A. hydrophila
Method in brief: as §1

[7] = tested on: Citrobacter diversus; experiment: MIC against Gram-negative bacteria: Citrobacter diversus; conditions: for MIC (μg/mL) C. diversus / MIC: C. diversus
Method in brief: as §1

[8] = tested on: Moraxella catarrhalis; experiment: MIC against Gram-negative bacteria: Moraxella catarrhalis; conditions: for MIC (μg/mL) M. catarrhalis / MIC: M. catarrhalis
Method in brief: as §1

[9] = tested on: Proteus mirabilis; experiment: MIC against Gram-negative bacteria: Proteus mirabilis; conditions: for MIC (μg/mL) P. mirabilis / MIC: P. mirabilis
Method in brief: as §1

[10] = tested on: Proteus vulgaris; experiment: MIC against Gram-negative bacteria: Proteus vulgaris; conditions: for MIC (μg/mL) P. vulgaris / MIC: P. vulgaris
Method in brief: as §1

[11] = tested on: Serratia marcescens; experiment: MIC against Gram-negative bacteria: Serratia marcescens; conditions: for MIC (μg/mL) S. marcescens / MIC: S. marcescens
Method in brief: as §1

[12] = E. coli BL21, 10 h cultivation at 37° C., 5×10^5 CFU/mL
[13] = 10 h cultivation at 37° C., 5×10^5 CFU/mL
[14] = 10 h cultivation at 37° C., 5×10^5 CFU/mL, two-fold serial dilution
[15] = 96-well plate, 5×10^5 CFU/mL, 37° C., 10 h

For “PRT234 (DINECATLSKVSCGKFSDCWNTEGSYDCVCSPGYEPVSGAKTFKNESENTCQ; listed as Homo sapiens)”, the MIC [1] was 25 µg/mL, the “MIC (μg/mL) E. coli BL21” value [2, 12] was 50 µg/mL and the “MIC (μg/mL) P. aeruginosa” value [3, 13] was 25 µg/mL. For the same substance, the “MIC (μg/mL) K. pneumonia” value [4, 13] was 12.5 µg/mL, the “MIC (μg/mL) E. cloacae” value [5, 13] was 25 µg/mL and the “MIC (μg/mL) A. hydrophila” value [6, 13] was 12.5 µg/mL. For the same substance, the “MIC (μg/mL) C. diversus” value [7, 13] was 25 µg/mL, the “MIC (μg/mL) M. catarrhalis” value [8, 13] was 12.5 µg/mL and the “MIC (μg/mL) P. mirabilis” value [9, 13] was 25 µg/mL. The “MIC (μg/mL) P. vulgaris” value [10, 13] was 12.5 µg/mL and the “MIC (μg/mL) S. marcescens” value [11, 13] was 25 µg/mL.
With “PRT1128 (VANSCTPNPCENDGVCTDIGGDFRCRCPAGFIDKTCS; listed as Homo sapiens)” the MIC [1] was 12.5 µg/mL, the “MIC E. coli BL21” value [2, 14] was 50 µg/mL and the “MIC P. aeruginosa” value [3, 14] was 12.5 µg/mL. The “MIC K. pneumonia” value [4, 14] was 50 µg/mL, the “MIC E. cloacae” value [5, 14] was 12.5 µg/mL and the “MIC A. hydrophila” value [6, 14] was 50 µg/mL. The “MIC C. diversus” value [7, 14] was 12.5 µg/mL, the “MIC M. catarrhalis” value [8, 14] was 50 µg/mL and the “MIC P. mirabilis” value [9, 14] was 12.5 µg/mL. The “MIC P. vulgaris” value [10, 14] was 50 µg/mL and the “MIC S. marcescens” value [11, 14] was 12.5 µg/mL.
Work on “PRT899 (NINECASNPCLNQGTCIDDVAGYKCNCLLPYTGATCE; listed as Homo sapiens)” yielded an MIC [1] of 12.5 µg/mL, an MIC ([2]; E. coli BL21, 10 h cultivation at 37° C.) of 12.5 µg/mL and an MIC ([3]; 10 h cultivation at 37° C.) of 12.5 µg/mL. The MIC ([4]; 10 h cultivation at 37° C.) was 12.5 µg/mL, the MIC ([5]; 10 h cultivation at 37° C.) was 50 µg/mL and the MIC ([6]; 10 h cultivation at 37° C.) was 12.5 µg/mL. For the same substance, the MIC ([7]; 10 h cultivation at 37° C.) was 50 µg/mL, the MIC ([8]; 10 h cultivation at 37° C.) was 12.5 µg/mL and the MIC ([9]; 10 h cultivation at 37° C.) was 50 µg/mL. For the same substance, the MIC ([10]; 10 h cultivation at 37° C.) was 12.5 µg/mL and the MIC ([11]; 10 h cultivation at 37° C.) was 12.5 µg/mL.
With “PRT246 (DINECTMDSHTCSHHANCFNTQGSFKCKCKQGYKGNGLRCS; listed as Homo sapiens)” the MIC [1] was 12.5 µg/mL, the “MIC (μg/mL) E. coli BL21” value [2, 12] was 12.5 µg/mL and the “MIC (μg/mL) P. aeruginosa” value [3, 13] was 12.5 µg/mL. The “MIC (μg/mL) K. pneumonia” value [4, 13] was 12.5 µg/mL, the “MIC (μg/mL) E. cloacae” value [5, 13] was 12.5 µg/mL and the “MIC (μg/mL) A. hydrophila” value [6, 13] was 12.5 µg/mL. The “MIC (μg/mL) C. diversus” value [7, 13] was 12.5 µg/mL, the “MIC (μg/mL) M. catarrhalis” value [8, 13] was 25 µg/mL and the “MIC (μg/mL) P. mirabilis” value [9, 13] was 12.5 µg/mL. The “MIC (μg/mL) P. vulgaris” value [10, 13] was 25 µg/mL and the “MIC (μg/mL) S. marcescens” value [11, 13] was 12.5 µg/mL.
For “PRT1392 (TELCTMECGSHGVCSRGICQCEEGWVGPTC; listed as Homo sapiens)”, the MIC [1] was 12.5 µg/mL, the “MIC against E. coli BL21” value ([2]; E. coli BL21, 5×10^5 CFU/mL, 10 h cultivation at 37° C.) was 25 µg/mL and the “MIC against P. aeruginosa” value ([3]; Pseudomonas aeruginosa, 5×10^5 CFU/mL, 10 h cultivation at 37° C.) was 12.5 µg/mL. For the same substance, the “MIC against K. pneumonia” value ([4]; Klebsiella pneumonia, 5×10^5 CFU/mL, 10 h cultivation at 37° C.) was 25 µg/mL, the “MIC against E. cloacae” value ([5]; Enterobacter cloacae, 5×10^5 CFU/mL, 10 h cultivation at 37° C.) was 12.5 µg/mL and the “MIC against A. hydrophila” value ([6]; Aeromonas hydrophila, 5×10^5 CFU/mL, 10 h cultivation at 37° C.) was 25 µg/mL. The “MIC against C. diversus” value ([7]; Citrobacter diversus, 5×10^5 CFU/mL, 10 h cultivation at 37° C.) was 12.5 µg/mL, the “MIC against M. catarrhalis” value ([8]; Moraxella catarrhalis, 5×10^5 CFU/mL, 10 h cultivation at 37° C.) was 25 µg/mL and the “MIC against P. mirabilis” value ([9]; Proteus mirabilis, 5×10^5 CFU/mL, 10 h cultivation at 37° C.) was 12.5 µg/mL. The “MIC against P. vulgaris” value ([10]; Proteus vulgaris, 5×10^5 CFU/mL, 10 h cultivation at 37° C.) was 25 µg/mL and the “MIC against S. marcescens” value ([11]; Serratia marcescens, 5×10^5 CFU/mL, 10 h cultivation at 37° C.) was 50 µg/mL.
For “PRT618 (CDCDPAGIAGPCDAGRCVCKPAVTGERCDRCRSGYYNLDGGNPEGCTQ; listed as Homo sapiens)”, the MIC [1] was 50 µg/mL, the “MIC E. coli BL21” value [2, 15] was 25 µg/mL and the “MIC P. aeruginosa” value [3, 15] was 12.5 µg/mL. For the same substance, the “MIC K. pneumonia” value [4, 15] was 50 µg/mL, the “MIC E. cloacae” value [5, 15] was 12.5 µg/mL and the “MIC A. hydrophila” value [6, 15] was 50 µg/mL. The “MIC C. diversus” value [7, 15] was 12.5 µg/mL, the “MIC M. catarrhalis” value [8, 15] was 50 µg/mL and the “MIC P. mirabilis” value [9, 15] was 12.5 µg/mL. The “MIC P. vulgaris” value [10, 15] was 50 µg/mL and the “MIC S. marcescens” value [11, 15] was 25 µg/mL.
With “PRT435 (DMDECSFSEFLCQHECVNQPGTYFCSCPPGYILLDDNRSCQ; listed as Homo sapiens)” the MIC [1] was 12.5 µg/mL, the MIC [2, 12] was 25 µg/mL and the MIC [3, 13] was 12.5 µg/mL. The MIC [4, 13] was 25 µg/mL, the MIC [5, 13] was 12.5 µg/mL and the MIC [6, 13] was 25 µg/mL. For the same substance, the MIC [7, 13] was 12.5 µg/mL, the MIC [8, 13] was 25 µg/mL and the MIC [9, 13] was 12.5 µg/mL. It also gave an MIC [10, 13] of 25 µg/mL and an MIC [11, 13] of 50 µg/mL.
